# Measured values published in patent publication US8802597B2, “Herbicidal pyrimidines” (E I du Pont de Nemours and Company, priority 2003, dated 2014).
# Columns and labels:
# Assay in all cases: Test D pre/postemergence
# Type in all cases: in vivo
# Conditions in all cases: scale 0 to 100 (100 = complete control)
# [1] = system: Russian thistle (Salsola kali)
# Excerpt: (§1) Seeds of plant species selected from catchweed bedstraw (galium; Galium aparine), common chickweed (Stellaria media), kochia (Kochia scoparia), lambsquarters (Chenopodium album), pigweed (Amaranthus retroflexus), Russian thistle (Salsola kali), wild buckwheat (Polygonum convolvulus), wild mustard (Sinapis arvensis), winter barley (Hordeum vulgare), and wheat (Triticum aestivum) were planted and treated preemergence with test chemicals formulated in a non-phytotoxic solvent mixture which included a surfactant.
# (§2) At the same time, plants selected from these crop and weed species were treated with postemergence applications of some of the test chemicals formulated in the same manner. Plants ranged in height from 2 to 18 cm (1- to 4-leaf stage) for postemergence treatments. Treated plants and controls were maintained in a controlled growth environment for 15 to 25 days after which time all species were compared to controls and visually evaluated. Plant response ratings, summarized in Table D, are based on a scale of 0 to 100 where 0 is no effect and 100 is complete control. A dash (-) response means no test result.
# [2] = system: catchweed bedstraw (galium; Galium aparine)
# Excerpt: as §1, §2
# [3] = system: common chickweed (Stellaria media)
# Excerpt: as §1, §2
# kochia (Kochia scoparia) = system: kochia (Kochia scoparia)
# Excerpt: as §1, §2
# [4] = system: lambsquarters (Chenopodium album)
# Excerpt: as §1, §2
# [5] = system: pigweed (Amaranthus retroflexus)
# Excerpt: as §1, §2
# [6] = system: wheat (Triticum aestivum)
# Excerpt: as §1, §2
# [7] = system: wild buckwheat (Polygonum convolvulus)
# Excerpt: as §1, §2
# [8] = system: wild mustard (Sinapis arvensis)
# Excerpt: as §1, §2
structure (smiles),measurement,setting,value
Nc1nc(C2CC2)nc(C=O)c1Br [Compound 26],"Plant response rating, Russian Thistle","[1]; Postemergence, 125 g ai/ha",40
same,"Plant response rating, Russian Thistle","[1]; Postemergence, 250 g ai/ha",40
same,"Plant response rating, Russian Thistle","[1]; Preemergence, 250 g ai/ha",100
same,"Plant response rating, Galium","[2]; Postemergence, 125 g ai/ha",70
same,"Plant response rating, Galium","[2]; Postemergence, 250 g ai/ha",85
same,"Plant response rating, Galium","[2]; Preemergence, 125 g ai/ha",85
same,"Plant response rating, Galium","[2]; Preemergence, 250 g ai/ha",100
same,"Plant response rating, Chickweed","[3]; Postemergence, 125 g ai/ha",45
same,"Plant response rating, Chickweed","[3]; Postemergence, 250 g ai/ha",55
same,"Plant response rating, Chickweed","[3]; Preemergence, 125 g ai/ha",60
same,"Plant response rating, Chickweed","[3]; Preemergence, 250 g ai/ha",65
same,"Plant response rating, Kochia","kochia (Kochia scoparia); Postemergence, 125 g ai/ha",35
same,"Plant response rating, Kochia","kochia (Kochia scoparia); Postemergence, 250 g ai/ha",55
same,"Plant response rating, Kochia","kochia (Kochia scoparia); Preemergence, 125 g ai/ha",55
same,"Plant response rating, Kochia","kochia (Kochia scoparia); Preemergence, 250 g ai/ha",75
same,"Plant response rating, Lambsquarters","[4]; Postemergence, 125 g ai/ha",40
same,"Plant response rating, Lambsquarters","[4]; Postemergence, 250 g ai/ha",50
same,"Plant response rating, Lambsquarters","[4]; Preemergence, 125 g ai/ha",60
same,"Plant response rating, Lambsquarters","[4]; Preemergence, 250 g ai/ha",65
same,"Plant response rating, Pigweed","[5]; Postemergence, 125 g ai/ha",60
same,"Plant response rating, Pigweed","[5]; Postemergence, 250 g ai/ha",70
same,"Plant response rating, Pigweed","[5]; Preemergence, 125 g ai/ha",65
same,"Plant response rating, Pigweed","[5]; Preemergence, 250 g ai/ha",100
same,"Plant response rating, Wheat","[6]; Postemergence, 125 g ai/ha",45
same,"Plant response rating, Wheat","[6]; Postemergence, 250 g ai/ha",20
same,"Plant response rating, Wheat","[6]; Preemergence, 125 g ai/ha",25
same,"Plant response rating, Wheat","[6]; Preemergence, 250 g ai/ha",35
same,"Plant response rating, Buckwheat, Wild","[7]; Postemergence, 125 g ai/ha",35
same,"Plant response rating, Buckwheat, Wild","[7]; Postemergence, 250 g ai/ha",55
same,"Plant response rating, Buckwheat, Wild","[7]; Preemergence, 125 g ai/ha",65
same,"Plant response rating, Buckwheat, Wild","[7]; Preemergence, 250 g ai/ha",95
same,"Plant response rating, Mustard, Wild","[8]; Postemergence, 125 g ai/ha",60
same,"Plant response rating, Mustard, Wild","[8]; Postemergence, 250 g ai/ha",75
same,"Plant response rating, Mustard, Wild","[8]; Preemergence, 125 g ai/ha",65
same,"Plant response rating, Mustard, Wild","[8]; Preemergence, 250 g ai/ha",65
COC(=O)c1nc(C2CC2)nc(NO)c1Br [Compound 35],"Plant response rating, Russian Thistle","[1]; Postemergence, 62 g ai/ha",100
same,"Plant response rating, Russian Thistle","[1]; Postemergence, 125 g ai/ha",100
same,"Plant response rating, Russian Thistle","[1]; Postemergence, 250 g ai/ha",100
same,"Plant response rating, Russian Thistle","[1]; Preemergence, 62 g ai/ha",85
same,"Plant response rating, Russian Thistle","[1]; Preemergence, 125 g ai/ha",100
same,"Plant response rating, Russian Thistle","[1]; Preemergence, 250 g ai/ha",100
same,"Plant response rating, Galium","[2]; Postemergence, 62 g ai/ha",100
same,"Plant response rating, Galium","[2]; Postemergence, 125 g ai/ha",100
same,"Plant response rating, Galium","[2]; Postemergence, 250 g ai/ha",100
same,"Plant response rating, Galium","[2]; Preemergence, 62 g ai/ha",85
same,"Plant response rating, Galium","[2]; Preemergence, 125 g ai/ha",100
same,"Plant response rating, Galium","[2]; Preemergence, 250 g ai/ha",100
same,"Plant response rating, Chickweed","[3]; Postemergence, 62 g ai/ha",80
same,"Plant response rating, Chickweed","[3]; Postemergence, 125 g ai/ha",80
same,"Plant response rating, Chickweed","[3]; Postemergence, 250 g ai/ha",85
same,"Plant response rating, Chickweed","[3]; Preemergence, 62 g ai/ha",60
same,"Plant response rating, Chickweed","[3]; Preemergence, 125 g ai/ha",100
same,"Plant response rating, Chickweed","[3]; Preemergence, 250 g ai/ha",100
same,"Plant response rating, Kochia","kochia (Kochia scoparia); Postemergence, 62 g ai/ha",80
same,"Plant response rating, Kochia","kochia (Kochia scoparia); Postemergence, 125 g ai/ha",85
same,"Plant response rating, Kochia","kochia (Kochia scoparia); Postemergence, 250 g ai/ha",85
same,"Plant response rating, Kochia","kochia (Kochia scoparia); Preemergence, 62 g ai/ha",75
same,"Plant response rating, Kochia","kochia (Kochia scoparia); Preemergence, 125 g ai/ha",100
same,"Plant response rating, Kochia","kochia (Kochia scoparia); Preemergence, 250 g ai/ha",100
same,"Plant response rating, Lambsquarters","[4]; Postemergence, 62 g ai/ha",100
same,"Plant response rating, Lambsquarters","[4]; Postemergence, 125 g ai/ha",100
same,"Plant response rating, Lambsquarters","[4]; Postemergence, 250 g ai/ha",100
same,"Plant response rating, Lambsquarters","[4]; Preemergence, 62 g ai/ha",65
same,"Plant response rating, Lambsquarters","[4]; Preemergence, 125 g ai/ha",75
same,"Plant response rating, Lambsquarters","[4]; Preemergence, 250 g ai/ha",80
same,"Plant response rating, Pigweed","[5]; Postemergence, 62 g ai/ha",100
same,"Plant response rating, Pigweed","[5]; Postemergence, 125 g ai/ha",100
same,"Plant response rating, Pigweed","[5]; Postemergence, 250 g ai/ha",100
same,"Plant response rating, Pigweed","[5]; Preemergence, 62 g ai/ha",65
same,"Plant response rating, Pigweed","[5]; Preemergence, 125 g ai/ha",80
same,"Plant response rating, Pigweed","[5]; Preemergence, 250 g ai/ha",85
same,"Plant response rating, Wheat","[6]; Postemergence, 62 g ai/ha",0
same,"Plant response rating, Wheat","[6]; Postemergence, 125 g ai/ha",65
same,"Plant response rating, Wheat","[6]; Postemergence, 250 g ai/ha",70
same,"Plant response rating, Wheat","[6]; Preemergence, 62 g ai/ha",35
same,"Plant response rating, Wheat","[6]; Preemergence, 125 g ai/ha",40
same,"Plant response rating, Wheat","[6]; Preemergence, 250 g ai/ha",50
same,"Plant response rating, Buckwheat, Wild","[7]; Postemergence, 62 g ai/ha",60
same,"Plant response rating, Buckwheat, Wild","[7]; Postemergence, 125 g ai/ha",70
same,"Plant response rating, Buckwheat, Wild","[7]; Postemergence, 250 g ai/ha",80
same,"Plant response rating, Buckwheat, Wild","[7]; Preemergence, 62 g ai/ha",55
same,"Plant response rating, Buckwheat, Wild","[7]; Preemergence, 125 g ai/ha",60
same,"Plant response rating, Buckwheat, Wild","[7]; Preemergence, 250 g ai/ha",65
same,"Plant response rating, Mustard, Wild","[8]; Postemergence, 62 g ai/ha",75
same,"Plant response rating, Mustard, Wild","[8]; Postemergence, 125 g ai/ha",75
same,"Plant response rating, Mustard, Wild","[8]; Postemergence, 250 g ai/ha",75
same,"Plant response rating, Mustard, Wild","[8]; Preemergence, 62 g ai/ha",65
same,"Plant response rating, Mustard, Wild","[8]; Preemergence, 125 g ai/ha",70
same,"Plant response rating, Mustard, Wild","[8]; Preemergence, 250 g ai/ha",75
